Patent publication US12509451B2, “Heteroaryl amide inhibitors of CD38” (NAPA THERAPEUTICS LTD., priority 2020, dated 2025)

Experiments:
[1] = target: T1, recombinant mouse CD38 Protein (Mus musculus, UniProt P56528); assay: Fluorescence-based NAD+ hydrolase activity assay with mouse recombinant CD38 protein (Assay 5); type: biochemical; conditions: read-out: Assay 5 Arithmetic mean IC50
T1 construct: purchased R&D System
T1 sequence (P56528 1-304): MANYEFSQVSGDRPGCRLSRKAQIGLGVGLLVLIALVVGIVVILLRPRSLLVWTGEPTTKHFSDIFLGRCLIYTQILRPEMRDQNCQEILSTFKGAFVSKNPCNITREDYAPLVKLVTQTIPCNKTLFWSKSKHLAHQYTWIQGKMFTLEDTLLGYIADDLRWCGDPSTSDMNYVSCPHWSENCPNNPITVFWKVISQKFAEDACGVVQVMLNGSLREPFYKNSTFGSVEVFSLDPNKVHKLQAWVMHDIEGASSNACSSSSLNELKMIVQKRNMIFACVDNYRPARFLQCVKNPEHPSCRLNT
Protocol: This protocol was modified from the following references: Muller et al. (1983); Schultz et al. (2018); Matalonga et al. (2017); and de Oliveira et al. (2018), supra.
(§1) NAD+ hydrolase activity of the mouse recombinant CD38 protein treated with test compounds was measured using a fluorescence-based assay. Briefly, recombinant mouse CD38 Protein (R&D System) was resuspended in 44 μl/well of Sucrose-Tris Buffer (Sucrose 0.25 M, Tris pH 7.4 40 mM) and plated in a 96 well black plate (CORNING) at a density of 2.5 ng/well.
(§2) Each test compound was received in a powder state and dissolved in DMSO as a 25 mM stock solution. Each test compound was serially diluted in order to generate a dose-response curve. The dilution series of each test compound in DMSO was prepared at 50 times the concentrations to be assayed. Each test compound was diluted to generate a 5-fold dilution series of 8 concentrations from 20 μM to 0.256 nM in order to assay 8 final concentrations ranging from 400 nM to 25.6 pM. One μl of the 50× concentration compound series was added to each well of the plate containing 2.5 ng of protein in Sucrose-Tris buffer.
Each plate had the following intra plate controls: 3 wells containing cells treated with vehicle only (DMSO), 3 wells of cells treated with the reference compounds 78c at a final concentration of 50 nM and 2 wells containing only Sucrose-Tris buffer (used as a background value).
The reaction was started adding nicotinamide 1,N^6-etheno-adenine dinucleotide (Sigma Aldrich) to reach a final concentration of 80 µM. The samples were excited at 321-15 nm and the emission of fluorescence was measured at 410-20 nm at 37° C. every minute for 1 hr in a Clariostar Microplate® reader (BMG LABTECH). NAD+ hydrolase activity was calculated as the slope of the linear portion of the fluorescence-time curve using the MARS data analysis software (BMG LABTECH). The data were uploaded in the Collaborative Drug Design (CDD) Software and for each compound the IC50 was calculated by the software. Each compound was tested in 3 independent experiments on 3 separate days to establish the reproducibility of the results. For each plate, the z-factor was also calculated as a plate quality using the CDD software.

[2] = target: T1, recombinant mouse CD38 Protein; assay: Fluorescence-based NAD+ cyclase activity assay with mouse recombinant CD38 protein (Assay 4); type: biochemical; conditions: read-out: Assay 4 Arithmetic mean IC50
Protocol: This protocol was modified from de Oliveira et al. (2018) supra.
as §1, with “NAD+ cyclase” for “NAD+ hydrolase”, “the […]” for “the mouse”, “a 96-well” for “a 96 well”, “of 32” for “of 2.5”
as §2, with “100” for “20”, “32” for “0.256”, “2 μM” for “400 nM”, “0.64 nM.” for “25.6 pM.”, “125” for “2.5”
Each plate had the following intra plate controls: 3 wells containing cells treated with vehicle only (DMSO), 3 wells of cells treated with the reference compounds 78c at a final concentration of 500 nM and 2 wells containing only Sucrose-Tris buffer (used as a background value).
The reaction was started adding nicotinamide guanine dinucleotide (NGD+) (Sigma Aldrich) to reach a final concentration of 150 µM. The samples were excited at 337-15 nm and the emission of fluorescence was measured at 442-20 nm at 37° C. every minute for 1 hr in a Clariostar® microplate reader (BMG LABTECH). NAD+ cyclase activity was calculated as the slope of the linear portion of the fluorescence-time curve using the MARS data analysis software (BMG LABTECH). The data were uploaded in the Collaborative Drug Design (CDD) Software and for each compound the IC50 was calculated by the software. Each compound was tested in 3 independent experiments on 3 separate days to establish the reproducibility of the results. For each plate, the z-factor was also calculated as a plate quality using the CDD software.

Compound `CC1(Oc2cc(C(=O)Nc3ccnc(C(F)(F)F)c3)nc(-n3ccnc3)n2)COC1` [Compound 41] has an IC50 [1] of 1 to 50 nM and an IC50 [2] of 51 to 1000 nM.
